Patent US20110263552A1, “MODULATION OF SIDE EFFECT PROFILE OF 5-ALPHA REDUCTASE INHIBITOR THERAPY” (SOV Therapeutics, priority 2009, published 2011)
Marks after values point to notes of the source that are not given here.

Tests used:
[1] = test system: absorption of cholesterol; details: ingestion of 1 g; meal containing 500 mg of cholesterol; cited from earlier work
[2] = oral 200 mg twice daily, cited from earlier work
[3] = Testosterone undecanoate (TU) solubility in various solubilizers
Male Sprague-Dawley rats = test: Organ weights in rats after 14 days of dosing (Example 9); format: in vivo
Description: The organ weights obtained from Bramson et al. are given in the right-hand column of the table for reference (Bramson, H. N., Journal of Pharmacology and Experimental Therapeutics, 1496-1502, (1997).)

[4] = male Sprague-Dawley rats, 80 mg/kg/day TU, without or with 1 mg/kg/day D

CC[C@H](CC[C@@H](C)[C@H]1CC[C@H]2[C@@H]3CC=C4C[C@@H](O)CC[C@]4(C)[C@H]3CC[C@]12C)C(C)C [β-sitosterol]
reduction of absorption of cholesterol [1]: 42%

C[C@]12CC[C@H]3[C@@H](CCC4=CC(=O)CC[C@@]43C)[C@@H]1CC[C@@H]2O [micronized testosterone, testosterone]
time at desired level of serum testosterone for each peak ([2]; Daggett et al.): about 4 hours | time of total serum testosterone within the normal range ([2]; Føgh et al.): greater than 12 hours

CCCCCCCCCCC(=O)O[C@H]1CC[C@H]2[C@@H]3CCC4=CC(=O)CC[C@]4(C)[C@H]3CC[C@]12C [TU, testosterone undecanoate]
TU Solubility ([3]; vehicle Acconon CO-7, at 37 C.): 59 mg/g | TU Solubility ([3]; vehicle Canola oil, at 37 C.): 167 mg/g | TU Solubility ([3]; vehicle Capmul MCM, determined at 25° C.): >100* mg/g | TU Solubility ([3]; vehicle Capmul PG-8, determined at 25° C.): >100* mg/g | TU Solubility ([3]; vehicle Caprylic acid, at 37 C.): 595 mg/g | TU Solubility ([3]; vehicle Castor oil, at 37 C.): 218 mg/g | TU Solubility ([3]; vehicle Corn oil, at 37 C.): 243 mg/g | TU Solubility ([3]; vehicle Cremophor RH40, determined at 25° C.): 88* mg/g | TU Solubility ([3]; vehicle Crodamol EO (ethyl oleate), at 37 C.): 221 mg/g | TU Solubility ([3]; vehicle Crodamol IPM (isopropyl myristate), at 37 C.): 295 mg/g | TU Solubility ([3]; vehicle Crodamol IPP (isopropyl palmitate), at 37 C.): 215 mg/g | TU Solubility ([3]; vehicle Ethyl linoleate, at 37 C.): 230 mg/g | TU Solubility ([3]; vehicle Glyceryl monooleate or GMO (Peceol (Gattefosse)), at 37 C.): 323 mg/g | TU Solubility ([3]; vehicle Glyceryl ricinoleate (Softigen 701), at 37 C.): 261 mg/g | TU Solubility ([3]; vehicle Glyceryl trioleate (Capmul GTO), at 37 C.): 154 mg/g | TU Solubility ([3]; vehicle Incromega E7010 (omega-3), at 37 C.): 247 mg/g | TU Solubility ([3]; vehicle Incromega TG7010 SR (omega-3 high purity), at 37 C.): 225 mg/g | TU Solubility ([3]; vehicle Labrafil M 2125 CS, at 37 C.): 257 mg/g | TU Solubility ([3]; vehicle Labrasol, determined at 25° C.): 43* mg/g | TU Solubility ([3]; vehicle Linoleic acid, at 37 C.): 391 mg/g | TU Solubility ([3]; vehicle Linolenic acid, at 37 C.): 162 mg/g | TU Solubility ([3]; vehicle Maisine 35-1, at 37 C.): 93 mg/g | TU Solubility ([3]; vehicle Miglyol 812, determined at 25° C.): >100* mg/g | TU Solubility ([3]; vehicle N-methyl pyrolidone, at 37 C.): >500 mg/g | TU Solubility ([3]; vehicle Oleic acid, at 37 C.): 405 mg/g | TU Solubility ([3]; vehicle Omega-3 ethyl esters w/antioxidant (AMRI), at 37 C.): 261 mg/g | TU Solubility ([3]; vehicle Omega-3 ethyl esters w/o antioxidant (AMRI), at 37 C.): 360 mg/g | TU Solubility ([3]; vehicle Polyglyceryl-3-diisostearate (Plurol diisosterique), at 37 C.): 173 mg/g | TU Solubility ([3]; vehicle Polyglyceryl-3-dioleate (Plurol oleique CC497), at 37 C.): 193 mg/g | TU Solubility ([3]; vehicle Polyglyceryl-6-dioleate (Caprol MPGO, Abitec), at 37 C.): 184 mg/g | TU Solubility ([3]; vehicle Polysorbate 80 (Tween 80), determined at 25° C.): 39* mg/g | TU Solubility ([3]; vehicle Polysorbate 85, at 37 C.): 125 mg/g | TU Solubility ([3]; vehicle Propylene glycol monocaprylate (Capryol 90, Gattefosse), at 37 C.): 486 mg/g | TU Solubility ([3]; vehicle Propylene glycol monolaurate, determined at 25° C.): >200* mg/g | TU Solubility ([3]; vehicle Rapeseed oil, at 37 C.): 123 mg/g | TU Solubility ([3]; vehicle Ricinoleic acid, at 37 C.): 244 mg/g | TU Solubility ([3]; vehicle Safflower oil, at 37 C.): 124 mg/g | TU Solubility ([3]; vehicle Span 80, at 37 C.): 289 mg/g | TU Solubility ([3]; vehicle Sunflower oil, at 37 C.): 105 mg/g | TU Solubility ([3]; vehicle Transcutol HP, at 37 C.): 180 mg/g | TU Solubility ([3]; vehicle dl-alpha-tocopherol, at 37 C.): 527 mg/g | Body weight, Mean (Male Sprague-Dawley rats; [4]): 284 g | Seminal vesicles weight, Mean (Male Sprague-Dawley rats; [4]): 0.902 grams | Testicles weight, Mean (Male Sprague-Dawley rats; [4]): 3.374 grams | Ventral prostate weight, Mean (Male Sprague-Dawley rats; [4]): 0.22 grams | Difference in organ weight versus vehicle-only (Male Sprague-Dawley rats; rats, any organ measured): No significant differences in weight
